Consider two molecules from patent EP0356894A1, “A novel glycopeptide antibiotic Decaplanin, a process for its production and its use as medicament” (priority 1988, dated 1990).

Series [1] in a line: acute toxicity, subcutaneous injection. Format: in vivo. The settings on record: 1000 mg/kg and 2000 mg/kg, injected subcutaneously, Swiss mice. From the text: The acute toxicity of the compound in laboratory animals has been evaluated.
Series [2] can be described thus: acute toxicity, intravenous injection, rats. Format: in vivo. The settings on record: Wistar rats.
A short description of series [3]: acute toxicity, intravenous injection, mice. Format: in vivo. The note with it: Swiss white mice.
Series [4] relates to Gram-positive bacteria. In words: minimum inhibitory concentration (MIC) determination. The class given is cell-based. The settings on record: wide range of Gram-positive bacteria including enterococci and resistant clinical isolates; MIC values are in Table II (image).
Series [5] deals with Staphylococcus aureus E 710 (Methicillin resistant). In words: in vivo antibacterial protection study in experimentally infected mice. The note with it: laboratory mice experimentally infected with Staphylococcus aureus E 710 (Methicillin resistant). From the text:
"In vivo" antibacterial protection studies

Where [6] appears, read: i.v., end of the 14 day follow-up period.

Regarding `CN[C@H](CC(C)C)C(=O)N[C@H]1C(=O)N[C@@H](CC(N)=O)C(=O)N[C@H]2C(=O)N[C@H]3C(=O)N[C@H](C(=O)N[C@H](C(=O)O)c4cc(O)cc(O)c4-c4cc3ccc4O)[C@H](O)c3ccc(c(Cl)c3)Oc3cc2cc(c3O[C@@H]2O[C@H](CO)[C@@H](O)[C@H](O)[C@H]2O[C@H]2C[C@](C)(N)[C@H](O)[C@H](C)O2)Oc2ccc(cc2Cl)[C@H]1O` [vancomycin, reference compound], the “finding at the site of injection” value in series [1] is listed as “tissue necrosis was seen at the site of injection”.

With Decaplanin, the “macroscopic examination on dissection” value in series [2] (setting [6]) and in series [3] (setting [6]) was “no morphological changes” throughout. In addition, the LD₅₀ result in series [2] (intravenous injection (i.v.)) is “greater than 2,500 mg/kg”; in series [3] (intravenous injection (i.v.), 20160 min), “greater than 3000 mg/kg”. The “activity against Gram-positive bacteria” value in series [4] is recorded as “displays activity”. Moreover, the “activity in the in vivo system” value in series [5] is listed as “good activity”. Further, the acute toxicity result in series [1] was “no acute toxicity was observed”. The “finding at the site of injection” value in series [1] is given as “no abnormalities were observed”.
